“Also recorded” adds a separate entry of the source.
Experiments:
[1] = tested on: Umbilical cord blood cells that express the stem/progenitor marker CD34; assay: Direct measurement of environmental mutagenicity (DMEM): exposed single cells, PTA and single-cell sequencing; format: cell-based, human; conditions: for enrichment of variants in DNase I hypersensitive (DH) sites: ENU-exposed CD34+ cells vs Roadmap Epigenomics DH sites (FIG. 12D, 12E)
Text: PTA was used to conduct a novel mutagenicity assay that provides a framework for performing high-resolution, genome wide human toxicogenomics studies. Previous studies such as the Ames test, relies on bacterial genetics to make measurements that are assumed to be representative of human cells while only providing limited information on the mutation number and patterns induced in each exposed cell. To overcome these limitations, a human mutagenesis system “direct measurement of environmental mutagenicity (DMEM)” was developed, wherein single human cells was exposed to an environmental compound, isolated as single cells, and subjected to single-cell sequencing to identify the new mutations induced in each cell.
Umbilical cord blood cells that express the stem/progenitor marker CD34 were exposed to increasing concentrations of the direct mutagen N-ethyl-N-nitrosourea (ENU).
ENU (CAS 759-73-9) and D-mannitol (CAS 69-65-8) were put into solution at their maximal solubility. Fresh anticoagulant-treated umbilical cord blood (CB) was obtained from St. Louis Cord Blood Bank. CB was diluted 1:2 with PBS and mononuclear cells (MNCs) were isolated by density gradient centrifugation on Ficoll-Paque Plus according to manufacturer's instructions. CB MNCs expressing CD34 were then immunomagnetically selected using the human CD34 microbead kit and magnetic cell sorting (MACS) system as per the manufacturer. Cell count and viability were assessed using the Luna FL cell counter. CB CD34+ cells were seeded at a density of 2.5×10^4 cells/mL in StemSpan SFEM supplemented with 1×CD34+ Expansion supplement, 100 units/mL of penicillin, and 100 ug/mL of streptomycin where they expanded for 96 hours before proceeding to mutagen exposure.
Expanded cord blood CD34+ cells were cultured in StemSpan SFEM supplemented with 1×CD34+ Expansion Supplement, 100 units/mL of penicillin, and 100 ug/mL of streptomycin. The cells were exposed to ENU at concentrations of 8.54, 85.4, and 854 uM, D-mannitol at 1152.8, and 11528 uM, or 0.9% sodium chloride (vehicle control) for 40 hours. Single-cell suspensions from drug-treated cells and vehicle control samples were harvested and stained for viability as described above. Single cell sorts were carried out as described above. PTA was performed and libraries were prepared using a simplified and improved protocol as per the general methods of the methods described herein, and Example 2.
Data acquired from cells in the DMEM experiments were trimmed using Trimmomatic, aligned to GRCh38 using BWA, and further processed using GATK 4.0.1 best practices without deviation from the recommended parameters. Genotyping was performed using HaplotypeCaller where joint genotypes were again filtered using standard parameters. […] The trinucleotide context of each SNV was determined by extracting the surrounding bases from the reference genome using bedtools. Mutation counts and context were visualized using ggplot2 and heatmap2 in R.
To determine whether mutations were enriched in DNase I hypersensitivity sites (DHS) in CD34+ cells, the proportion of SNVs in each sample that overlap with DHS sites from 10 CD34+ primary cell datasets produced by the Roadmap Epigenomics Project were calculated. DHS sites were extended by 2 nucleosomes, or 340 bases in either direction. Each DHS dataset was paired with a single cell sample where we determined the proportion of the human genome with at least 10× coverage in that cell which overlapped with a DHS, which was compared to the proportion of SNVs that were found within the covered DHS sites.

mice = conditions: limited sequencing of target genes; cited from earlier work
[2] = tested on: leukemia cells; clone harboring an activating KRAS mutation; assay: Leukemia cells in culture exposed to increasing concentrations of standard ALL chemotherapy drugs, bulk sequencing of clones; format: cell-based, human; conditions: for sensitivity of the clone harboring an activating KRAS mutation: pediatric ALL sample in culture, bulk sequencing (FIG. 7)
Text: Single-cell exome sequencing of individual leukemia cells harboring an ETV6-RUNX1 translocation has been performed, measuring approximately 200 coding mutations per cell, only 25 of which have been present in enough cells to be detected with standard bulk sequencing in that patient. The mutation load per cell has then been incorporated with other known features of this type of leukemia, such as the replication-associated mutation rate (1 coding mutation/300 cell divisions), the time from initiation to diagnosis (4.2 years), and the population size at the time of diagnosis (100 billion cells) to create an in silico simulation of the development of the disease. It has been unexpectedly discovered that even in what has been thought to be a genetically simple cancer such as pediatric ALL, there are an estimated 330 million clones with distinct coding mutation profiles at the time of diagnosis in that patient. […] Accordingly, methods are provided for enhancing the sensitivity of detection so that clones that make up at least 0.01% (1:10,000) of the cells (box B) can be detected, as this is the stratum in which most resistant disease that causes relapse is hypothesized to reside.
Given such a massive population genetic diversity, it has been hypothesized that there are clones that are more resistant to treatment within a given patient. To test that hypothesis, the sample is placed in culture and the leukemia cells are exposed to increasing concentrations of standard ALL chemotherapy drugs. […] This approach also employed bulk sequencing of the treated samples. The use of single-cell DNA sequencing in some instances allows a determination of the diversity and clonotypes of the expanding populations.

CCN(N=O)C(N)=O [ENU, N-ethyl-N-nitrosourea]
mutation number of each cell ([1]; ENU 8.54, 85.4 and 854 uM, 40 hours, cord blood CD34+ cells (FIG. 12A)): dose-dependent increase in mutation number of each cell
type of base changes induced ([1]; ENU-exposed CD34+ cells (FIG. 12B)): the most common mutations are T to A (A to T), T to C (A to G), and C to T (G to A); also recorded: C to G (G to C) transversion appears to be rare
trinucleotide context of the SNVs ([1]; ENU-exposed CD34+ cells (FIG. 12C)): cytosine mutagenesis appears to be rare when cytosine is followed by guanine; also recorded: most thymine variants occur where adenine is present before thymine
genomic feature annotation of the variants relative to the genome ([1]; ENU-exposed CD34+ cells (FIG. 12F)): not significantly different; also recorded: No specific enrichment was seen in specific annotations
enrichment of variants in DNase I hypersensitive (DH) sites [1]: no enrichment of cytosine variants in DNase I hypersensitivity sites was observed; also recorded: No significant enrichment in variant locations at DH sites was identified
enrichment of variants in DNase I hypersensitive (DH) sites ([1]; listed as N-ethyl-N-nitrosourea): No significant enrichment of cytosine variants was observed
preference of base changes (mice): preference for T to A (A to T), T to C (A to G), and C to T (G to A) changes

COc1cccc2c1C(=O)c1c(O)c3c(c(O)c1C2=O)C[C@@](O)(C(C)=O)C[C@@H]3O[C@H]1C[C@H](N)[C@H](O)[C@H](C)O1 [daunorubicin]
sensitivity of the clone harboring an activating KRAS mutation [2]: more sensitive; also recorded: killed

C[C@]12C=CC(=O)C=C1CC[C@@H]1[C@@H]2[C@@H](O)C[C@@]2(C)[C@H]1CC[C@]2(O)C(=O)CO [prednisolone]
sensitivity of the clone harboring an activating KRAS mutation [2]: more sensitive; also recorded: killed

asparaginase
behaviour of the clone harboring an activating KRAS mutation ([2]; lowest dose of asparaginase, pediatric ALL sample in culture (FIG. 7)): continued to expand

Source: patent US11905553B2, “Method for nucleic acid amplification” (ST. JUDE CHILDREN'S RESEARCH HOSPITAL, INC., priority 2018, dated 2024)
